How the values were obtained:
[1] = molecular target: TRKA (Homo sapiens, UniProt P04629); assay: Kinase spectrum assay (ADP-Glo); conditions: remaining enzyme activity at 1 μm compound
[2] = molecular target: MELK (Homo sapiens, UniProt Q14680); assay: Kinase spectrum assay (ADP-Glo); conditions: remaining enzyme activity at 1 μm compound
[3] = test system: A549 cells; assay: Anti-proliferative assay, standard CCK-8 method; assay type: cell-based, human; conditions: Homo sapiens, mean ± SD of at least three independent experiments, read-out: Proliferative inhibition (IC50, μM) A549
Source text: (§1) All reagents and solvents met the criteria of analytical reagents before use. All cancer cell lines (A549, human non-small-cell lung cell line; HT-29, human colonic adenocarcinoma cell line; MCF-7, human breast cancer cell line) were purchased from Stem Cell Bank, Chinese Academy of Sciences. […] ADP-Glo™ kinase assay kits were provided by Promega (Beijing) Biotech Co., Ltd. (Beijing, China). All kinase subtypes were supplied by SignalChem (BC, Canada).
(§2) The designed 4-anilinoquinazoline derivatives were evaluated for their antitumor bioactivities in vitro against three human tumor cell lines (A549, HT-29, and MCF-7) using the standard CCK-8 method. The CCK-8 method is based on WST-8 dye, 2-(2-methoxy-4-nitrophenyl)-3-(4-nitrophenyl)-5-(2,4-disulfophenyl)-2H-tetrazolium. WST-8 can be bio-reduced by dehydrogenases in mitochondria into orange water-soluble formazan products. Briefly, selected cancer cells in the logarithmic growth phase (1 × 10^4) were inoculated in 96-well plates and further cultured in the incubator for 24 h. First, the target compounds were diluted to different concentrations with culture medium with each dilution gradually diluted from the highest concentration solution. Second, the original culture medium was removed after the cells were completely adherent to the wall, and the compounds at various concentrations prepared above were added. In this experiment, a control group and a blank group were set: the former was treated with 0.1% DMSO solution, and the latter was treated with only the culture medium. […] A microplate reader was adopted to record the absorbance at 450 nm, and in this assay, gefitinib, erlotinib, and sorafenib were used as the reference drugs.

[4] = test system: MCF-7 cells; assay: Anti-proliferative assay, standard CCK-8 method; assay type: cell-based, human; conditions: Homo sapiens, MCF7, mean ± SD of at least three independent experiments, read-out: Proliferative inhibition (IC50, μM) MCF-7
Source text: as §1, §2

[5] = test system: HT-29 cells; assay: Anti-proliferative assay, standard CCK-8 method; assay type: cell-based, human; conditions: Homo sapiens, mean ± SD of at least three independent experiments, read-out: Proliferative inhibition (IC50, μM) HT-29
Source text: as §1, §2

[6] = molecular target: JAK3 (Homo sapiens, UniProt P52333); assay: Kinase spectrum assay (ADP-Glo); conditions: remaining enzyme activity at 1 μm compound
Sequence of JAK3 (P52333 whole entry): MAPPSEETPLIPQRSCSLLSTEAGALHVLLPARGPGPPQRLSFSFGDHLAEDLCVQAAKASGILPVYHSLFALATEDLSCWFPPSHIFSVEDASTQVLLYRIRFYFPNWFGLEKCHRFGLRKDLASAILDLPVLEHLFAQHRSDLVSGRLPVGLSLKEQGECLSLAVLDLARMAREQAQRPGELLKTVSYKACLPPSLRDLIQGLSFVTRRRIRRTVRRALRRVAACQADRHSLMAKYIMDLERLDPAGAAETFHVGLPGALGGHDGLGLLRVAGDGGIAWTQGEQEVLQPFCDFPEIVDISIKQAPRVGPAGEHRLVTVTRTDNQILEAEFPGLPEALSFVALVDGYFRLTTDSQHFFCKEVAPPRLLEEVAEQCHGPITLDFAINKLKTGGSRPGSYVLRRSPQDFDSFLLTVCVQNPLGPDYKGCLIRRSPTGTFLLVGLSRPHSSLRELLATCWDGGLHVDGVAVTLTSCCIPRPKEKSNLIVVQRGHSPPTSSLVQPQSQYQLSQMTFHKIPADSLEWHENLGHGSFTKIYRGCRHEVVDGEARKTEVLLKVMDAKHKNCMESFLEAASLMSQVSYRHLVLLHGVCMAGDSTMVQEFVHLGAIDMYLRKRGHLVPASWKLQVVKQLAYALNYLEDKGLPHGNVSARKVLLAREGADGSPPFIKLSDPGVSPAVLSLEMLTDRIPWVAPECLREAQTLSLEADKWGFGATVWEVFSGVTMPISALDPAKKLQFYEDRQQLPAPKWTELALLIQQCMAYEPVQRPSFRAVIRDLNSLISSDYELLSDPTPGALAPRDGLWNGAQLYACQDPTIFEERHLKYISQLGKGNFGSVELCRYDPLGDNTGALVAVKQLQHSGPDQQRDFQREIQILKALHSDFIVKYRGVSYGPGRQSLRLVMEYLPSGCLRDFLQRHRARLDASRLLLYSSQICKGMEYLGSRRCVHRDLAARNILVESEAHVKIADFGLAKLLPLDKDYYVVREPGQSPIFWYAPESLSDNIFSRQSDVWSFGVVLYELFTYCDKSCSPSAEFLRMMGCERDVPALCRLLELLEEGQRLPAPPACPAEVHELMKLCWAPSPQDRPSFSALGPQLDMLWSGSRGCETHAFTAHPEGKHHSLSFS

[7] = molecular target: PKCa (Homo sapiens, UniProt P17252); assay: Kinase spectrum assay (ADP-Glo); conditions: remaining enzyme activity at 1 μm compound
[8] = test system: other protein kinases; assay: Kinase spectrum assay (ADP-Glo), text summary for kinases other than EGFR; conditions: all panel kinases other than EGFR, at 1.0 μm compound
[9] = molecular target: ROCK1 (Homo sapiens, UniProt Q13464); assay: Kinase spectrum assay (ADP-Glo); conditions: remaining enzyme activity at 1 μm compound
[10] = molecular target: PKACα (Homo sapiens, UniProt P17612); assay: Kinase spectrum assay (ADP-Glo); conditions: remaining enzyme activity at 1 μm compound
[11] = molecular target: CLK3 (Homo sapiens, UniProt P49761); assay: Kinase spectrum assay (ADP-Glo); conditions: remaining enzyme activity at 1 μm compound
Sequence of CLK3 (P49761 whole entry): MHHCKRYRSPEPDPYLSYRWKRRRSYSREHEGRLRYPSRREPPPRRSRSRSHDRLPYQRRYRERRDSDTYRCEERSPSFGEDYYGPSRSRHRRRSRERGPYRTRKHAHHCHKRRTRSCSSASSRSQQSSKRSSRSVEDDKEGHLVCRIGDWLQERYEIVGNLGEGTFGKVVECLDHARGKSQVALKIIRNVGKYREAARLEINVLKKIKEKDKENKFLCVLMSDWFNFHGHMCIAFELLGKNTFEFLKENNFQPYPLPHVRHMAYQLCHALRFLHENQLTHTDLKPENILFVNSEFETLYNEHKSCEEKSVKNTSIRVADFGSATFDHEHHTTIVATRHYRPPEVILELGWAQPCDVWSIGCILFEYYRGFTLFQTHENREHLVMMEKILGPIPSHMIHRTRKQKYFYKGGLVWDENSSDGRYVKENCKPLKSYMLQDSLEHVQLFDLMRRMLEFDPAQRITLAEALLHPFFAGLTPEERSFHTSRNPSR

[12] = molecular target: CAMK2α (Homo sapiens, UniProt Q9UQM7); assay: Kinase spectrum assay (ADP-Glo); conditions: remaining enzyme activity at 1 μm compound
Sequence of CAMK2α (Q9UQM7 whole entry): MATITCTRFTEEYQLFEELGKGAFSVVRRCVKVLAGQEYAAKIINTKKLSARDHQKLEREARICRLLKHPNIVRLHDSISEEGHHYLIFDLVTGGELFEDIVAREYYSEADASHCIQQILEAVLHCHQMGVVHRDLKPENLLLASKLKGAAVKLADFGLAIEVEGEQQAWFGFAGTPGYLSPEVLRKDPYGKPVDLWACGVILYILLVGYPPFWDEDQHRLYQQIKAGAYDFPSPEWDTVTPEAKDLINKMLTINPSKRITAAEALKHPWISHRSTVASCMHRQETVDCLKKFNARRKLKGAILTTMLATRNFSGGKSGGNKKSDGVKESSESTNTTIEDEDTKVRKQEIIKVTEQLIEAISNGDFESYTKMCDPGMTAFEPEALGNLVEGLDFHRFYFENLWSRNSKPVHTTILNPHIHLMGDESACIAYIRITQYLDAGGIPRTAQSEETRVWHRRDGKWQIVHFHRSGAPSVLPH

[13] = molecular target: ERK2 (Homo sapiens, UniProt P28482); assay: Kinase spectrum assay (ADP-Glo); conditions: remaining enzyme activity at 1 μm compound
Sequence of ERK2 (P28482 whole entry): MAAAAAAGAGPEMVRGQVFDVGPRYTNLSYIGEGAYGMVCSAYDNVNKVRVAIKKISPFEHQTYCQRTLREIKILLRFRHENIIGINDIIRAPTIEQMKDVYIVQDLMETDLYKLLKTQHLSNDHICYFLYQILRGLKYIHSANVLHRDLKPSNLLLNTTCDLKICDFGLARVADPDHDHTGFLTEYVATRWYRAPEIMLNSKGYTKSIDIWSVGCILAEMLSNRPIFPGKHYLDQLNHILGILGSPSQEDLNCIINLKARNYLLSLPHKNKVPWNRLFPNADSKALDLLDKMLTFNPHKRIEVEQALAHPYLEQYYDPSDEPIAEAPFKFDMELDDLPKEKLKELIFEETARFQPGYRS

[14] = molecular target: Abl (Homo sapiens, UniProt P00519); assay: Kinase spectrum assay (ADP-Glo); conditions: remaining enzyme activity at 1 μm compound
[15] = molecular target: LCK (Homo sapiens, UniProt P06239); assay: Kinase spectrum assay (ADP-Glo); conditions: remaining enzyme activity at 1 μm compound
[16] = molecular target: IRAK4 (Homo sapiens, UniProt Q9NWZ3); assay: Kinase spectrum assay (ADP-Glo); conditions: remaining enzyme activity at 1 μm compound
[17] = molecular target: Chk1 (Homo sapiens, UniProt O14757); assay: Kinase spectrum assay (ADP-Glo); conditions: remaining enzyme activity at 1 μm compound
[18] = molecular target: FAK (Homo sapiens, UniProt Q05397); assay: Kinase spectrum assay (ADP-Glo); conditions: remaining enzyme activity at 1 μm compound
[19] = molecular target: T1, EGFR (Homo sapiens, UniProt P00533); assay: EGFR kinase inhibition, ADP-Glo assay; assay type: biochemical
T1 construct: 2 μl (50 ng/ml) of EGFR kinase
T1 sequence (P00533 25-1210): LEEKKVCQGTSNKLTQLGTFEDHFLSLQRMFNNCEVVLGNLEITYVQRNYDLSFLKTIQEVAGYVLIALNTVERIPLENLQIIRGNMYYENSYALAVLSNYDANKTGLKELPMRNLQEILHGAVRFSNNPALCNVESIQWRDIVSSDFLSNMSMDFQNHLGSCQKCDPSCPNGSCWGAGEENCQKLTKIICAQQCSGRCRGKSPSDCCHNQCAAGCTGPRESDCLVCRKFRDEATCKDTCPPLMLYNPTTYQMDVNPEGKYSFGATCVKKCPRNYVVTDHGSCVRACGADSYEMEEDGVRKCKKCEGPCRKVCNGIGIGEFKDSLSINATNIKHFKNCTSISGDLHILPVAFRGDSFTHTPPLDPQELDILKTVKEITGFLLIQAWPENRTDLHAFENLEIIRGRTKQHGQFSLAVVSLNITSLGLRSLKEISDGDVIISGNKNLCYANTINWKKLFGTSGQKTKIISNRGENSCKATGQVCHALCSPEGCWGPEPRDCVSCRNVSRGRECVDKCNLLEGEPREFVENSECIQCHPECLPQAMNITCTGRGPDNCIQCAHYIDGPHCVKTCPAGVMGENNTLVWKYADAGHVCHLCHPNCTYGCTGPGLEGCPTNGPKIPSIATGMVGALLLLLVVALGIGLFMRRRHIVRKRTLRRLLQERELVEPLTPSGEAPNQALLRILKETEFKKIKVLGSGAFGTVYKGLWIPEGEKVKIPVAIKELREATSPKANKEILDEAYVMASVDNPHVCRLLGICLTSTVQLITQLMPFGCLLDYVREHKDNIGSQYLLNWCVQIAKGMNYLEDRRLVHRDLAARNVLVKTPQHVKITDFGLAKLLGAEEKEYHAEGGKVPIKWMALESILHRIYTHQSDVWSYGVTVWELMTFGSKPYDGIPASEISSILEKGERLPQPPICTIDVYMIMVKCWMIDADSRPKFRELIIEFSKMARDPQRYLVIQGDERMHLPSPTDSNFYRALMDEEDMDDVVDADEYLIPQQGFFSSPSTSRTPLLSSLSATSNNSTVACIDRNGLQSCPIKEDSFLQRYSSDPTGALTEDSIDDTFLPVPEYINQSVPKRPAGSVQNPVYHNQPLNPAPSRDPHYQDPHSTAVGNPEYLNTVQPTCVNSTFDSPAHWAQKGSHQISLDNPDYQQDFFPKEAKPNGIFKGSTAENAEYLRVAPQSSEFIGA
Description: The EGFR kinase inhibition activities of the target compounds were evaluated by the ADP-Glo™ assay. The ADP-Glo™ kinase detection kit is a luminescence kinase detection approach that detects the amount of ADP produced by the kinase reaction. After ADP is converted into ATP, ATP can be used as the substrate of the luciferase-catalyzed reaction to generate an optical signal, which is positively correlated with kinase activity. […] The above-prepared systems were sealed and incubated at room temperature for 2 h, and 5 μl of ADP-GLO was added to terminate the kinase reaction. Then, the culture plate was sealed and incubated in a thermostatic oscillator for 40 min to fully consume the remaining ATP. The luciferase/luciferin reaction was adopted to determine the newly generated ATP level.

[20] = molecular target: PDK1 (Homo sapiens, UniProt O15530); assay: Kinase spectrum assay (ADP-Glo); conditions: remaining enzyme activity at 1 μm compound
[21] = molecular target: NIK (Homo sapiens, UniProt Q99558); assay: Kinase spectrum assay (ADP-Glo); conditions: remaining enzyme activity at 1 μm compound
[22] = molecular target: FGFR2 (Homo sapiens, UniProt P21802); assay: Kinase spectrum assay (ADP-Glo); conditions: remaining enzyme activity at 1 μm compound
[23] = Aqueous solubility; assay type: physicochemical; conditions: in words
[24] = molecular target: HER4 (Homo sapiens, UniProt Q15303); assay: Kinase spectrum assay (ADP-Glo); conditions: remaining enzyme activity at 1 μm compound
[25] = molecular target: SRC (Homo sapiens, UniProt P12931); assay: Kinase spectrum assay (ADP-Glo); conditions: remaining enzyme activity at 1 μm compound

Sequence of TRKA (P04629 33-796): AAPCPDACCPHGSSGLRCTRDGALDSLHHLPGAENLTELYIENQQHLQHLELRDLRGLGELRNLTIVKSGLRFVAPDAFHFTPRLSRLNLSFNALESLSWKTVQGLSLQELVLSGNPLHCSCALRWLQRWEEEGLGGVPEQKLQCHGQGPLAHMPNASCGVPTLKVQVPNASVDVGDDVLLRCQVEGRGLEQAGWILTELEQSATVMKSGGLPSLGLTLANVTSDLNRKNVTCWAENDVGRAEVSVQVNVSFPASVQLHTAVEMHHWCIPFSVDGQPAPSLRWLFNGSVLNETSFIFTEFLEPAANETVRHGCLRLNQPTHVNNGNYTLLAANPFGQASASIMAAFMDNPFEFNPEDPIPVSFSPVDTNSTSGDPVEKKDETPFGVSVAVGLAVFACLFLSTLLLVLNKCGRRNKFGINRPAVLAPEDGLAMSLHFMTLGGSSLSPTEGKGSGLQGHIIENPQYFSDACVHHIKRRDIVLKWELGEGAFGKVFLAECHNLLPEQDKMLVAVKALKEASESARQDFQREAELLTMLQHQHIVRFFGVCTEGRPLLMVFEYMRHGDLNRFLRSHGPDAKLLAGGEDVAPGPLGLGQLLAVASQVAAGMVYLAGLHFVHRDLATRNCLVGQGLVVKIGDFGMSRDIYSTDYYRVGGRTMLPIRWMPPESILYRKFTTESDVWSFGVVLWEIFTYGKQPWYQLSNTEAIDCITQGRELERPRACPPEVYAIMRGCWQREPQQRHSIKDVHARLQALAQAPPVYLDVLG

- Enzyme activity % TRKA [1]: 83.52 ± 3.13%
- Enzyme activity % MELK [2]: 78.83 ± 6.55%
- IC50 [3]: 2.25 ± 0.08 µM
- IC50 [4]: 2.81 ± 0.09 µM
- IC50 [5]: 1.72 ± 0.49 µM
- melting point: 268 to 268.9 °C
- Enzyme activity % JAK3 [6]: 82.49 ± 1.82%
- Enzyme activity % PKCa [7]: 77.27 ± 1.18%
- enzyme activity of the other protein kinases [8]: > 50%
- Enzyme activity % ROCK1 [9]: 78.70 ± 4.00%
- Enzyme activity % PKACα [10]: 86.02 ± 3.75%
- Enzyme activity % CLK3 [11]: 86.80 ± 1.90%
- Enzyme activity % CAMK2α [12]: 72.67 ± 2.92%
- Enzyme activity % ERK2 [13]: 97.31 ± 11.84%
- Enzyme activity % Abl [14]: 94.51 ± 0.41%
- Enzyme activity % LCK [15]: 86.84 ± 6.53%
- Enzyme activity % IRAK4 [16]: 86.33 ± 0.56%
- Enzyme activity % Chk1 [17]: 75.98 ± 6.72%
- Enzyme activity % FAK [18]: 81.70 ± 2.75%
- IC50 ([19]; ADP-Glo, mean ± SD of at least two independent experiments, read-out: Enzymatic inhibition IC50 (nM) EGFR): 17.3 ± 0.54 nM
- Enzyme activity % EGFR ([19]; remaining enzyme activity at 1 μm compound): 10.52 ± 0.26%
- Enzyme activity % PDK1 [20]: 74.18 ± 0.62%
- Enzyme activity % NIK [21]: 76.97 ± 5.84%
- Enzyme activity % FGFR2 [22]: 91.07 ± 8.02%
- aqueous solubility [23]: soluble
- Enzyme activity % HER4 [24]: 76.85 ± 0.33%
- Enzyme activity % SRC [25]: 72.10 ± 1.83%
Compound: O=C(Nc1ccc(Cl)c(C(F)(F)F)c1)Nc1ccc2ncnc(Nc3cccc(Br)c3)c2c1 [Compound 7i]
